Patent US20260042764A1, “COMPOSITIONS AND METHODS FOR INHIBITION OF KRAS” (TheRas, Inc., priority 2022, published 2026)

Columns and labels:
[1] = target: T1, Avi-KRAS G12D (1-169) GppNHp/RAF1 RBD-3xFLAG (52-151) (Homo sapiens, UniProt P01116, G12D); test: Raf1-KRAS G12D-GppNHP disruption HTRF assay (Biological Example 1); type: binding
T1 construct: Avi-KRAS G12D (1-169)
How it was run: (§1)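 HTRF PPI disruption; buffer 50 mM Tris pH 7.5, 100 mM NaCl, 5 mM MgCl2, 0.1% BSA, 0.01% Tween, 10% DMSO. Protein mix 1 h RT shaking, reagent mix 1 h RT shaking. Data as % activity vs DMSO (100%).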

[2] = target: T2, Avi-KRAS G12R (1-169) GppNHp/RAF1 RBD-3xFLAG (52-151) (Homo sapiens, UniProt P01116, G12R); test: Raf1-KRAS G12R-GppNHP disruption HTRF assay (Biological Example 1); type: binding
T2 construct: Avi-KRAS G12R (1-169)
T2 sequence (P01116 1-169 isoform P01116-2 G12R): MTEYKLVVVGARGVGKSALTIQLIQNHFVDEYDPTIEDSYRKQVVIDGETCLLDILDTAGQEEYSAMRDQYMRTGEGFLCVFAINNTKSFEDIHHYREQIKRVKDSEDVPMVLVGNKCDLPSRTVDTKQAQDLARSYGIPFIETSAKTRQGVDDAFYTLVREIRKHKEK
How it was run: as §1

[3] = target: T3, Avi-KRAS G12V (1-169) GppNHp/RAF1 RBD-3xFLAG (52-151) (Homo sapiens, UniProt P01116, G12V); test: Raf1-KRAS G12V-GppNHP disruption HTRF assay (Biological Example 1); type: binding
T3 construct: Avi-KRAS G12V (1-169)
T3 sequence (P01116 1-169 isoform P01116-2 G12V): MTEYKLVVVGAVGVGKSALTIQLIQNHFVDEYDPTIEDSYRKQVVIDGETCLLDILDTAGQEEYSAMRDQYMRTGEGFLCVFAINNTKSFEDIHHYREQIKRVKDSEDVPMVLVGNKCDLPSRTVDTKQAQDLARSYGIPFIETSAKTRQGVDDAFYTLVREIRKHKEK
How it was run: as §1

[4] = target: T4, Avi-KRAS WT (1-169) GppNHp/RAF1 RBD-3xFLAG (52-151) (Homo sapiens, UniProt P01116); test: Raf1-KRAS WT-GppNHP disruption HTRF assay (Biological Example 1); type: binding
T4 construct: Avi-KRAS WT (1-169)
T4 sequence (P01116 1-169 isoform P01116-2): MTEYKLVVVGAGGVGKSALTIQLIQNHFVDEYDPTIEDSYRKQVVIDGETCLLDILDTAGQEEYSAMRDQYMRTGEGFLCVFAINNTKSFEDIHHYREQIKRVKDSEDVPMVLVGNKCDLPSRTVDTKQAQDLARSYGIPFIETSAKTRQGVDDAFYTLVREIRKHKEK
How it was run: as §1

[5] = system: GP2d cells (KRAS G12D); test: Cell-based pERK HTRF assay in GP2d cell (Biological Example 2); details: GP2d (KRAS G12D) cells, pERK HTRF
How it was run: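 HTRF read-out of pERK (excitation 320 nm, emission 615 nm) after lysates sat 4–24 h at room temperature with Eu cryptate and d2 antibodies.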

[6] = system: SW620 cells (KRAS G12V); test: Cell-based pERK HTRF assay in SW620 cell (Biological Example 4); details: pERK HTRF
How it was run: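 In SW620 cells grown in RPMI with 10% FBS, a 4 h compound treatment (0.25% DMSO, 9-point curve from 1 μM) preceded lysis. Phospho-ERK levels were then read by time-resolved FRET at 615 nm emission.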

[7] = KRAS G12D, GppNHp-loaded, class symbols
[8] = KRAS G12R, GppNHp-loaded, class symbols
[9] = KRAS G12V, GppNHp-loaded, class symbols
[10] = KRAS WT, GppNHp-loaded, class symbols
[11] = Homo sapiens, SW-620, SW620 (KRAS G12V) cells, class symbols
[12] = Homo sapiens, SW-620, SW620 (KRAS G12V) cells

T1 sequence (P01116 1-169 isoform P01116-2 G12D): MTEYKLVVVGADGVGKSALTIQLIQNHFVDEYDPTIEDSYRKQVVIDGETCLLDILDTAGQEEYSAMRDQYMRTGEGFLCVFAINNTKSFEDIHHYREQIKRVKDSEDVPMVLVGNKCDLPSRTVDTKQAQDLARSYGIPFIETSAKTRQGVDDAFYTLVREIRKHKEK

With N#Cc1c(N)sc2c(F)ccc(-c3c(C(F)(F)F)cc4c(N5CCn6nc(C(=O)N7CCC(O)C7)cc6C5)nc(OCC56CCCN5CC(F)C6)nc4c3F)c12 (stereo not drawn) [Compound 513] the IC50 ([1]; KRAS G12D-GppNHp/RAF1 RBD HTRF) was 0.1 to 1 µM, the IC50 ([2]; KRAS G12R-GppNHp/RAF1 RBD HTRF) was 0.1 to 1 µM and the IC50 ([3]; KRAS G12V-GppNHp/RAF1 RBD HTRF) was 0.1 to 1 µM. For the same compound, the IC50 ([4]; KRAS WT-GppNHp/RAF1 RBD HTRF) was 0.1 to 1 µM, the IC50 [5] was under 0.1 µM and the IC50 ([6]; SW620 (KRAS G12V) cells) was 0.1 to 1 µM.

CCN(c1nc(OC[C@@]23CCCN2C[C@H](F)C3)nc2c(F)c(-c3ccc(F)c4sc(N)c(C#N)c34)c(C(F)(F)F)cc12)[C@@H]1CCN(C(=O)[C@H](C)OC)[C@@H]1C (atropisomer, axis not shown) [Compound 789] gave an IC50 [1, 7] of under 0.1 µM, an IC50 [2, 8] of under 0.1 µM and an IC50 [3, 9] of 0.1 to 1 µM. The IC50 [4, 10] was under 0.1 µM, the IC50 ([5]; GP2d, class symbols) was under 0.1 µM and the IC50 [6, 11] was under 0.1 µM.

With CCN(c1nc(OC[C@@]23CCCN2C[C@H](F)C3)nc2c(F)c(-c3ccc(F)c4sc(N)c(C#N)c34)c(C(F)(F)F)cc12)[C@@H]1C[C@H](C)N(C(=O)N(C)C)C1 (atropisomer, axis not shown) [Compound 545] the IC50 ([1]; KRAS G12D-GppNHp/RAF1 RBD HTRF) was 0.1 to 1 µM, the IC50 ([2]; KRAS G12R-GppNHp/RAF1 RBD HTRF) was 1 to 10 µM and the IC50 ([3]; KRAS G12V-GppNHp/RAF1 RBD HTRF) was 1 to 10 µM. It also gave an IC50 ([4]; KRAS WT-GppNHp/RAF1 RBD HTRF) of 0.1 to 1 µM, an IC50 ([5]; GP2d) of under 0.1 µM and an IC50 [6, 12] of under 0.1 µM.

C[C@H]1CN(c2nc(OC[C@@]34CCCN3C[C@H](F)C4)nc3c(F)c(-c4ccc(F)c5sc(N)c(C#N)c45)c(C(F)(F)F)cc23)Cc2cc(C(=O)N(C)C)nn21 [Compound 402] showed an IC50 ([1]; KRAS G12D-GppNHp/RAF1 RBD HTRF) of 0.1 to 1 µM, an IC50 ([2]; KRAS G12R-GppNHp/RAF1 RBD HTRF) of 0.1 to 1 µM and an IC50 ([3]; KRAS G12V-GppNHp/RAF1 RBD HTRF) of 0.1 to 1 µM. For the same compound, the IC50 ([4]; KRAS WT-GppNHp/RAF1 RBD HTRF) was 1 to 10 µM, the IC50 ([5]; GP2d) was under 0.1 µM and the IC50 [6, 12] was under 0.1 µM.

Work on CCN(c1nc(OC[C@@]23CCCN2C[C@H](F)C3)nc2c(F)c(-c3ccc(F)c4sc(N)c(C#N)c34)c(C(F)(F)F)cc12)[C@H]1CCN(C(=O)c2ncc(C)o2)C1 (atropisomer, axis not shown) [Compound 803] yielded an IC50 [1, 7] of under 0.1 µM, an IC50 [2, 8] of 0.1 to 1 µM and an IC50 [3, 9] of 0.1 to 1 µM. It also gave an IC50 [4, 10] of 0.1 to 1 µM, an IC50 ([5]; GP2d, class symbols) of under 0.1 µM and an IC50 [6, 11] of under 0.1 µM.

N#Cc1c(N)sc2c(F)ccc(-c3c(C(F)(F)F)cc4c(N5C6CC5CS(=O)(=O)C6)nc(OC[C@@]56CCCN5C[C@H](F)C6)nc4c3F)c12 [Compound 357] was tested, and the IC50 ([1]; KRAS G12D-GppNHp/RAF1 RBD HTRF) was 0.1 to 1 µM, the IC50 ([2]; KRAS G12R-GppNHp/RAF1 RBD HTRF) was 0.1 to 1 µM and the IC50 ([3]; KRAS G12V-GppNHp/RAF1 RBD HTRF) was 1 to 10 µM. It also gave an IC50 ([4]; KRAS WT-GppNHp/RAF1 RBD HTRF) of 0.1 to 1 µM, an IC50 ([5]; GP2d) of under 0.1 µM and an IC50 [6, 12] of 0.1 to 1 µM.

Work on CCN(c1nc(OC[C@@]23CCCN2C[C@H](F)C3)nc2c(F)c(-c3ccc(F)c4sc(N)c(C#N)c34)c(C(F)(F)F)cc12)[C@H]1CCN(C(=O)[C@@H]2C[C@H]2F)C1 (atropisomer, axis not shown) [Compound 768] yielded an IC50 [1, 7] of under 0.1 µM, an IC50 [2, 8] of under 0.1 µM and an IC50 [3, 9] of under 0.1 µM. The IC50 [4, 10] was under 0.1 µM, the IC50 ([5]; GP2d, class symbols) was under 0.1 µM and the IC50 [6, 11] was under 0.1 µM.

In the case of N#Cc1c(N)sc2c(F)ccc(-c3c(C(F)(F)F)cc4c(N5C[C@@H]6CC[C@H]5CN6C(=O)C5CC5)nc(OC[C@@]56CCCN5C[C@H](F)C6)nc4c3F)c12 [Compound 456], the IC50 ([1]; KRAS G12D-GppNHp/RAF1 RBD HTRF) is reported as 0.1 to 1 µM, the IC50 ([2]; KRAS G12R-GppNHp/RAF1 RBD HTRF) is reported as 0.1 to 1 µM and the IC50 ([3]; KRAS G12V-GppNHp/RAF1 RBD HTRF) is reported as 0.1 to 1 µM. For the same compound, the IC50 ([4]; KRAS WT-GppNHp/RAF1 RBD HTRF) was 0.1 to 1 µM, the IC50 ([5]; GP2d) was under 0.1 µM and the IC50 [6, 12] was under 0.1 µM.

CCN(c1nc(OC[C@@]23CCCN2C[C@H](F)C3)nc2c(F)c(-c3ccc(F)c4sc(N)c(C#N)c34)c(C(F)(F)F)cc12)[C@H]1CCN(C(=O)OC2CC(OC)C2)C1 (stereo partly drawn) [Compound 791] showed an IC50 [1, 7] of under 0.1 µM, an IC50 [2, 8] of under 0.1 µM and an IC50 [3, 9] of under 0.1 µM. It also gave an IC50 [4, 10] of under 0.1 µM, an IC50 ([5]; GP2d, class symbols) of under 0.1 µM and an IC50 [6, 11] of under 0.1 µM.

CCN(CC)C(=O)c1cc2n(n1)CCN(c1nc(OCC34CCCN3CC(F)C4)nc3c(F)c(-c4ccc(F)c5sc(N)c(C#N)c45)c(C(F)(F)F)cc13)C2 (stereo not drawn) [Compound 645] was tested, and the IC50 [1, 7] was 0.1 to 1 µM, the IC50 [2, 8] was 0.1 to 1 µM and the IC50 [3, 9] was 0.1 to 1 µM. It also gave an IC50 [4, 10] of 0.1 to 1 µM, an IC50 ([5]; GP2d, class symbols) of under 0.1 µM and an IC50 [6, 11] of under 0.1 µM.

With N#Cc1c(N)sc2c(F)ccc(-c3c(C(F)(F)F)cc4c(N5CCC5)nc(OC[C@@]56CCCN5C[C@H](F)C6)nc4c3F)c12 [Compound 212] the IC50 ([1]; KRAS G12D, GppNHp-loaded, Table 11) was 0.1 to 1 µM, the IC50 ([2]; KRAS G12R, GppNHp-loaded, Table 11) was 0.1 to 1 µM and the IC50 ([3]; KRAS G12V, GppNHp-loaded, Table 11) was 0.1 to 1 µM. The IC50 ([4]; KRAS WT, GppNHp-loaded, Table 11) was 0.1 to 1 µM, the IC50 ([5]; GP2d) was under 0.1 µM and the IC50 [6, 12] was under 0.1 µM.
